Experimental data reported in patent US8076324B2, “Di(hetero)arylcyclohexane derivatives, their preparation, their use and pharmaceutical compositions comprising them” (Sanofi-Aventis, priority 2007, dated 2011).
pIC50: −log10 of the molar value. Where a name gives a salt, the structure may show the parent alone.

Columns and labels:
[1] = target: T1, myocardial ATP-sensitive potassium channel (SUR2A/Kir6.2) (UniProt Q61743+Q63563); test: Rubidium efflux test on HEK293 cells transfected with SUR2A and Kir6.2 (myocardial action); type: cell-based, SUR2A from the rat, Kir6.2 from the mouse; settings: HEK293 cells transfected with SUR2A/Kir6.2; KATP channels opened by rilmakalim; 25 min incubation; read-out: IC50 values for the inhibition of the rubidium efflux
T1 construct: expressed in transfected cells
Protocol: 1) Action on the SUR2A/Kir6.2 potassium channel (myocardial action) The action of the compounds on the ion transport through the myocardial ATP-sensitive potassium channel (SUR2A/Kir6.2) was determined in the rubidium efflux test system described below on human embryonic kidney cells HEK293 which were transfected with the components SUR2A and Kir6.2 (cf. Weyermann et al., Naunyn-Schmiedeberg's Arch. Pharmacol. 369, 374-381 (2004)).
The HEK293 cells were cultured at 37° C. in a humidified air atmosphere with 7% carbon dioxide in minimal essential medium with Earle's salts and L-glutamine (MEM, Gibco), which was supplemented with 10% fetal calf serum and zeozin (0.36 mg/ml) and geneticin (0.75 mg/ml). The transfection of the cells and the preparation of a cell line with stable expression of Kir6.2 from the mouse (accession number AF037313) and SUR2A from the rat (accession number D83598/L40624) were carried out as described in Giblin et al., J. Biol. Chem. 274, 22652-22659 (1999).
60 000 transfected cells per well were inoculated into a poly-D-lysine-coated 96-well microtiter plate (Greiner #650 201). After incubation for 24 h at 37° C., the cells were washed three times with buffer 1 (150 mM NaCl, 2 mM CaCl2, 0.8 mM NaH2PO4, 1 mM MgCl2, 5 mM glucose, 25 mM HEPES, pH=7.4). Subsequently, the buffer solution was replaced by 100 μl of rubidium loading buffer (buffer 1 with 5.4 mM RbCl) and the cells were incubated for a further 3 h at 37° C. The rubidium loading buffer was then removed by washing the cells three times with 200 μl each of potassium chloride wash buffer (buffer 1 with 5.4 mM KCl). After addition of the test substances (70 μl; dissolved in potassium chloride wash buffer with addition of DMSO), the KATP channels of the cells were opened by addition of 70 μl of rilmakalim (2 μM) (cf. Krause et al., Pflügers Arch. 429, 625-635 (1995)) and the cells were incubated at 37° C. for 25 min. Subsequently, the cell supernatants were transferred to a new 96-well microtiter plate and the cells were lyzed by addition of 200 μl of lysis buffer (buffer 1 with 1% Triton X-100). The concentrations of Rb^+ in the cell supernatant and in the cell lyzate were measured by means of atomic absorption spectroscopy using an Al 1200 apparatus (Aurora Instruments Ltd.).
The Rb^+ efflux rate was calculated as [Rb^+SN]/[Rb^+total], wherein [Rb^+SN] is the amount of Rb^+ in the cell supernatant and [Rb^+total] is the sum of the amounts of Rb^+ in the cell supernatant and cell lyzate. IC50 values for the inhibition of the rubidium efflux were calculated with the aid of the Hill equation.

T1 sequence (Q63563 whole entry): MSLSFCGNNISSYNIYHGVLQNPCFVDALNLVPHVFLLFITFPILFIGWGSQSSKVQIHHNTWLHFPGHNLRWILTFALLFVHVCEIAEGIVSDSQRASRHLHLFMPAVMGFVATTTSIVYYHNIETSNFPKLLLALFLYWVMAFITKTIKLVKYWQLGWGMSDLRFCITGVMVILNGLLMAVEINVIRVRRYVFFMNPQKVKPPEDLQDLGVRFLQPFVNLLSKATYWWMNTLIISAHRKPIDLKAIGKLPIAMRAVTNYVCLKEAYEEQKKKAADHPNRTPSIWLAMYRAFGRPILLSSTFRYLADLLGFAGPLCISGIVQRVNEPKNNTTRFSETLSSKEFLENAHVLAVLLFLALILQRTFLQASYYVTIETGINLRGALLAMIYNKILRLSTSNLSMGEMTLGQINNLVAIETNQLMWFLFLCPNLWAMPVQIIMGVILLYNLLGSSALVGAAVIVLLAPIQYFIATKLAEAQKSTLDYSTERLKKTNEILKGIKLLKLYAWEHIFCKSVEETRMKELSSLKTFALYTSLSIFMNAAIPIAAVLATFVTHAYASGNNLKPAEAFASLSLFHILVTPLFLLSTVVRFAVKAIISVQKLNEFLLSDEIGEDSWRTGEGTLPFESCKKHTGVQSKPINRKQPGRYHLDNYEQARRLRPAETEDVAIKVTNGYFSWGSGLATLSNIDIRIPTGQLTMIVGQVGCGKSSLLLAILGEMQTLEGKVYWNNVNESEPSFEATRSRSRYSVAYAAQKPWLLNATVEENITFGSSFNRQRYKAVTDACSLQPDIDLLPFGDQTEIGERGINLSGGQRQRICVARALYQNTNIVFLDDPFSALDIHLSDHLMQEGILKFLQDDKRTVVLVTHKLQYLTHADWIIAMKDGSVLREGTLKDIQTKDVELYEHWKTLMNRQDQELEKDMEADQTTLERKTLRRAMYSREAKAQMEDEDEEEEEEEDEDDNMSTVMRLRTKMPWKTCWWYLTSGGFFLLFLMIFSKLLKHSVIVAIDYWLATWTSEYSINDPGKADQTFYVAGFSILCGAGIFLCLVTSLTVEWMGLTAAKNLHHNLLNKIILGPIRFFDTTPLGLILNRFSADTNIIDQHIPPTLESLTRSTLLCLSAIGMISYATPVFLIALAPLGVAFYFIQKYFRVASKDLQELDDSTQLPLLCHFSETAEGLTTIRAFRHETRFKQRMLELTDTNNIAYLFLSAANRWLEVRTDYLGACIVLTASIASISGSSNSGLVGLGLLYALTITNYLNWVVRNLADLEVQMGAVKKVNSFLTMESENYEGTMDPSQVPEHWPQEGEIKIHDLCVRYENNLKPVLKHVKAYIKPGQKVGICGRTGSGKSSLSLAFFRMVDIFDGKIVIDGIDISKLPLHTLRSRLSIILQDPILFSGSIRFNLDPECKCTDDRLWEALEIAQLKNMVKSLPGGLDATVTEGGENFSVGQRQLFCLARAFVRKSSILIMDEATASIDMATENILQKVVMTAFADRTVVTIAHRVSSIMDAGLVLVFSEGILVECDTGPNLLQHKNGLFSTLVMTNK
T1 sequence (Q61743 whole entry): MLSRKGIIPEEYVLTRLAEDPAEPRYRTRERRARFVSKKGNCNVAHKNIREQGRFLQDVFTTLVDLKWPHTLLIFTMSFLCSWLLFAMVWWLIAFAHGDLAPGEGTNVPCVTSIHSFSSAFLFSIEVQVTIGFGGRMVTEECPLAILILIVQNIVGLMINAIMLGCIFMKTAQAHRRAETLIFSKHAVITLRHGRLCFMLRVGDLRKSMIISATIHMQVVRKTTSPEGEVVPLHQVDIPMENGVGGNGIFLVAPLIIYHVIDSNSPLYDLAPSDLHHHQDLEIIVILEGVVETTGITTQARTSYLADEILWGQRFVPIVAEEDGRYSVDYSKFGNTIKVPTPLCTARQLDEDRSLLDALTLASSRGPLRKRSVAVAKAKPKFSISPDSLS

Row | melting point | pIC50 [1] | SMILES
1 | 159 °C | – | O=C(O)[C@]1(c2ccc(F)cc2)CC[C@](Oc2ncccn2)(c2ccc(F)cn2)CC1
2 | 242 °C | > 6.00 | Cc1c(S(C)(=O)=O)nc([C@]2(OCC3CC3)CC[C@](C(=O)O)(c3ccccc3)CC2)n1CC1CC1 [Example 422, Cis-4-Cyclopropylmethoxy-4-(1-cyclopropylmethyl-5-methyl-4-methanesulfonyl-1H-imidazol-2-yl)-1-phenylcyclohexanecarboxylic Acid]
3 | 209 °C | > 6.00 | O=C(O)[C@]1(c2ccc(F)cc2)CC[C@](OCC2CC2)(c2cn(CC3CC3)c(-c3ccccc3)n2)CC1 [Example 432, Trans-4-Cyclopropylmethoxy-4-(1-cyclopropylmethyl-2-phenyl-1H-imidazol-4-yl)-1-(4-fluorophenyl)cyclohexanecarboxylic Acid]
4 | 158 °C | > 6.00 | Cc1c(Br)nc([C@]2(Oc3ccccc3)CC[C@](C(=O)O)(c3ccc(F)cc3)CC2)n1CC1CC1 [Example 403, Cis-4-(4-Bromo-1-cyclopropylmethyl-5-methyl-1H-imidazol-2-yl)-4-phenoxy-1-(4-fluorophenyl)cyclohexanecarboxylic Acid]
5 | 199 °C | > 6.00 | Cc1nc([C@]2(OCC3CC3)CC[C@](C(=O)O)(c3ccccc3)CC2)n(CC2CC2)c1-c1ccc(F)cc1 [Example 427, Cis-4-Cyclopropylmethoxy-4-[1-cyclopropylmethyl-5-(4-fluorophenyl)-4-methyl-1H-imidazol-2-yl]-1-phenylcyclohexanecarboxylic Acid]
6 | – | > 6.00 | O=C(O)[C@]1(c2ccccc2)CC[C@@](OCC2CC2)(c2ccnc(-c3ccccc3)c2)CC1 [Example 488, Cis-4-Cyclopropylmethoxy-1-phenyl-4-(2-phenylpyridin-4-yl)cyclohexanecarboxylic Acid]
7 | – | > 6.00 | O=C(O)C1(c2ccccc2)CCC(OCC2CC2)(c2ccc(F)cc2)CC1 (stereo not shown) [Example 150]
8 | – | > 6.00 | O=C(O)C1(c2ccccc2)CCC(O)(c2ccc(Br)cc2)CC1 (stereo not shown) [Example 105]
9 | – | > 6.00 | CS(=O)(=O)c1cccc2nc([C@]3(OCC4CC4)CC[C@](C(=O)O)(c4ccccc4)CC3)n(CC3CC3)c12 [Example 455]
10 | – | > 6.00 | CS(=O)(=O)c1cc(F)ccc1C1(OCC2CC2)CCC(C(=O)O)(c2ccc(F)cc2)CC1 (stereo not shown) [Example 253]
11 | – | > 6.00 | CSc1cc(F)ccc1C1(OCC2CC2)CCC(C(=O)O)(c2ccc(F)cc2)CC1 (stereo not shown) [Example 243]
12 | – | > 6.00 | CSc1ccc(C2(O)CCC(C(=O)O)(c3ccccc3)CC2)cc1 (stereo not shown) [Example 161, 4-Hydroxy-4-(4-methylsulfanylphenyl)-1-phenylcyclohexanecarboxylic Acid]
13 | – | > 6.00 | COC1(c2cccc(F)c2)CCC(C(=O)O)(c2ccccc2)CC1 (stereo not shown) [Example 119]

The next lines start with the molecule.

Row | SMILES | melting point | pIC50 [1]
14 | Cc1nc([C@]2(OCC3CC3)CC[C@](C(=O)O)(c3ccc(F)cc3)CC2)n(CC2CC2)c1Br [Example 354, Cis-4-(5-Bromo-1-cyclopropylmethyl-4-methyl-1H-imidazol-2-yl)-4-cyclopropylmethoxy-1-(4-fluorophenyl)cyclohexanecarboxylic Acid] | 190 °C | > 6.00
15 | Cc1nc([C@]2(OCC3CC3)CC[C@](C(=O)O)(c3ccccc3)CC2)n(CC2CC2)c1-c1ccccc1 [Example 426, Cis-4-Cyclopropylmethoxy-4-(1-cyclopropylmethyl-4-methyl-5-phenyl-1H-imidazol-2-yl)-1-phenylcyclohexanecarboxylic Acid] | 218 °C | > 6.00
16 | Cc1nc([C@]2(OCC3CC3)CC[C@](C(=O)O)(c3ccccc3)CC2)n(CC2CC2)c1C#N [Example 419, Cis-4-(5-Cyano-1-cyclopropylmethyl-4-methyl-1H-imidazol-2-yl)-4-cyclopropylmethoxy-1-phenylcyclohexanecarboxylic Acid] | 228 °C | > 6.00
17 | O=C(O)[C@]1(c2ccc(F)cc2)CC[C@@](OCC2CC2)(c2cn(CC3CC3)c(-c3ccccc3)n2)CC1 | 198 °C | –
18 | Cc1c(C#N)nc([C@]2(OCC3CC3)CC[C@](C(=O)O)(c3ccc(F)cc3)CC2)n1CC1CC1 [Example 418, Cis-4-(4-Cyano-1-cyclopropylmethyl-5-methyl-1H-imidazol-2-yl)-4-cyclopropylmethoxy-1-(4-fluorophenyl)cyclohexanecarboxylic Acid] | 245 °C | > 6.00
19 | Cc1c(Br)nc([C@]2(OCC3CC3)CC[C@](C(=O)O)(c3ccc(F)cc3)CC2)n1CC1CC1 [Example 350, Cis 4-(4-Bromo-1-cyclopropylmethyl-5-methyl-1H-imidazol-2-yl)-4-cyclopropylmethoxy-1-(4-fluorophenyl)cyclohexanecarboxylic Acid] | 210 °C | > 6.00
20 | Cc1c(Cl)nc([C@]2(OCC3CC3)CC[C@](C(=O)O)(c3ccc(F)cc3)CC2)n1CC1CC1 [Example 360, Cis-4-(4-Chloro-1-cyclopropylmethyl-5-methyl-1H-imidazol-2-yl)-4-cyclopropylmethoxy-1-(4-fluorophenyl)cyclohexanecarboxylic Acid] | 185 °C | > 6.00
21 | O=C(O)[C@]1(c2ccc(F)cc2)CC[C@](Oc2ccccn2)(c2ccc(F)cn2)CC1 [Example 339, Trans-1-(4-Fluorophenyl)-4-(5-fluoropyridin-2-yl)-4-(pyridin-2-yloxy)cyclohexanecarboxylic Acid] | > 300 °C | > 6.00
22 | Cc1nc([C@]2(OCC3CC3)CC[C@](C(=O)O)(c3ccccc3)CC2)n(CC2CC2)c1S(C)(=O)=O (as salt: sulfonic acid salt) | 206 °C | –
23 | O=C(O)[C@]1(c2ccc(F)cc2)CC[C@](OCC2CC2)(c2ccc(F)cn2)CC1 | 211 °C | –
24 | CSc1ccc(F)cc1C1(OCC2CC2)CCC(C(=O)O)(c2ccc(F)cc2)CC1 (stereo not shown) [Example 247] | – | > 6.00
25 | CS(=O)(=O)c1cccc2c1nc([C@]1(OCC3CC3)CC[C@](C(=O)O)(c3ccccc3)CC1)n2CC1CC1 | 227 °C | –
26 | CCCn1c(Cl)c(C)nc1[C@]1(OCCC(C)(C)C)CC[C@](C(=O)O)(c2ccccc2)CC1 [Example 389] | – | > 6.00
27 | O=C(O)[C@]1(c2ccccc2)CC[C@@](OCC2CC2)(c2nccn2CC2CC2)CC1 [Example 492, Cis-Cyclopropylmethoxy-4-(1-cyclopropylmethyl-1H-imidazol-2-yl)-1-phenylcyclohexanecarboxylic Acid] | – | > 6.00
28 | COC1(c2ccc(Cl)cn2)CCC(C(=O)O)(c2ccccc2)CC1 (stereo not shown) [Example 137] | – | > 6.00
29 | COC1(c2ccc(SC)cc2)CCC(C(=O)O)(c2ccccc2)CC1 (stereo not shown) [Example 163, 4-Methoxy-4-(4-methylsulfanylphenyl)-1-phenylcyclohexanecarboxylic Acid] | – | > 6.00
30 | O=C(O)[C@]1(c2ccc(F)cc2)CC[C@@](OCC2CC2)(c2nc3ccccc3n2CC2CC2)CC1 [Example 366] | – | > 6.00
31 | O=C(O)[C@]1(c2ccccc2)CC[C@@](OCC2CC2)(c2nc(-c3ccccc3)cs2)CC1 [Example 333-1, Cis-4-Cyclopropylmethoxy-1-phenyl-4-(4-phenylthiazol-2-yl)cyclohexanecarboxylic Acid] | – | > 6.00
32 | COC1(c2ccc(F)cc2)CCC(C(=O)O)(c2ccccc2)CC1 (stereo not shown) [Example 92, 4-(4-Fluorophenyl)-4-methoxy-1-phenylcyclohexanecarboxylic Acid] | – | > 6.00
33 | C=C(CO[C@]1(c2nccn2CC2CC2)CC[C@@](C(=O)O)(c2ccccc2)CC1)c1ccccc1 [Example 495, Cis-4-(1-Cyclopropylmethyl-1H-imidazol-2-yl)-1-phenyl-4-(2-phenylallyloxy)cyclohexanecarboxylic Acid] | – | > 6.00
34 | O=C(O)C1(c2ccccc2)CCC(OCC2CC2)(c2cccc(C3CC3)c2)CC1 (stereo not shown) [Example 182, 4-Cyclopropylmethoxy-4-(3-cyclopropylphenyl)-1-phenylcyclohexanecarboxylic Acid] | – | > 6.00
35 | Cc1c(Cl)nc([C@]2(OCC3CC3)CC[C@](C(=O)O)(c3ccccc3)CC2)n1CC1CC1 [Example 383] | – | > 6.00
